Data set [1] can be described thus: T cell activation-based serum stability assay. The settings on record: 30 µM peptide in RPMI-1640 + 10% fresh mouse serum, 24 h, 37 °C, vs fresh peptide; titrated on splenocytes, CD69 read-out by flow cytometry. Format: in vitro ADME. The procedure:
Peptides are also highly susceptible to proteolytic cleavage, resulting in a short half-life in vivo ([65], [66]). […] To test if the association of antigen-CPPs with serum components impacts peptide antigen stability, we used an in vitro antigen-presentation assay to functionally determine if T cells could still be activated by antigen-CPPs after incubation with serum proteases ([22]). Free gp100 peptide or gp100-CPP peptides were incubated for 24 h in 10% mouse serum, then added to splenocytes at titrated doses for 1 h to allow antigen uptake and processing, followed by culture with pmel-1 (gp100–specific) T cells for 24 h and assessment of pmel-1 CD69 expression (Fig. 6A and SI Appendix, Fig. S13). From these cocultures, we determined the peptide antigen concentration required for 50% of maximal CD69 up-regulation by the pmel-1 T cells (EC50) (Fig. 6B) and the change in EC50 for peptides preincubated with serum (ΔEC50) (Fig. 6C). […] In contrast, the ΔEC50 for gp100-CPPs ranged from 0.76 to 3.4 (Fig. 6C).
Following prime and boost of mice with gp100 peptides, CD8^+ T cell responses were confirmed on day −1. […] CD69^+/CD8^+ T cell responses were measured by flow cytometry.
Figure S13. […] Shown are plots of pmel activation, measured via CD69 upregulation, against the concentration of the fresh or serum -treated construct. […]

The target in data set [2] is proteinase K (Parengyodontium album, UniProt P06873). Briefly: Proteolysis LC-MS assay. Format: in vitro ADME. The settings on record: 5 µM peptide in PBS, 0.5 ng proteinase K, 37 °C, 2 hours, time points 0, 30, 60, 120 min, LC-MS (Q-TOF), no other serum components. The text has this: To gain more direct evidence of altered peptide stability, we used quadrupole time-of-flight liquid chromatography/MS (LC-QTOF-MS), to directly detect proteolytic degradation of pAntp and MPG conjugates in serum. […] We hypothesized that enhanced stability of the conjugates could reflect an intrinsic protective peptidase-/protease-blocking effect by the CPP or be an indirect effect mediated by binding of the conjugate to other serum proteins that sterically interfere with protease attack on the peptide. To distinguish these possibilities, we performed a similar experiment assessing proteolytic stability in the presence of purified proteinase K—a promiscuous protease that cleaves peptide bonds following hydrophobic amino acids—in the absence of other serum components.
proteinase K, sequence (P06873 106-384, species assumed): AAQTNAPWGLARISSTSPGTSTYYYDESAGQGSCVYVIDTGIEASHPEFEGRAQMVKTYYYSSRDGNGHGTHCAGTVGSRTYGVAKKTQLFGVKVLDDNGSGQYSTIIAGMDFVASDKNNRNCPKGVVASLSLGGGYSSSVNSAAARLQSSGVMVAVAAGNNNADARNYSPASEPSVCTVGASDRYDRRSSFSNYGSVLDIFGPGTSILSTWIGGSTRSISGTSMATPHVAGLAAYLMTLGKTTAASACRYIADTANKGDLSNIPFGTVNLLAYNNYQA
C18 column (2 μm particle size, 15 cm × 50 μm ID; Thermo Fisher Scientific). Mobile phase A was 0.1% formic acid in ultrapure water (v/v) and mobile phase B was 80% acetonitrile, 0.1% formic acid in ultrapure water (v/v). The nano-LC method was as follows: 1% B ramping in a linear manner to 41% B in A over 120 minutes, flow rate: 300 nL/min. Data were processed using PEAKS proteomics software.
Serum stability LC-MS assay. […]
Proteolysis LC-MS Assay. […] They were then resuspended 50:50 water:acetonitrile with 0.1% trifluoroacetic acid and reaction analyzed on an Agilent 6550 iFunnel Q -TOF MS. […]

The record followed here is article PMC9371699, “Cell-penetrating peptides enhance peptide vaccine accumulation and persistence in lymph nodes to drive immunogenicity” (Proceedings of the National Academy of Sciences of the …, 2022).

Ends that are not written are not given here.

In the case of AVGALEGPRNQDWLGVPRQL-NH2 [gp100], in data set [1], the “increase in EC50 (CD69 up-regulation) after incubation in serum” value is reported as approximately 16 fold. Moreover, the “proteolytic stability with purified proteinase K” value in data set [2] is listed as “rapid degradation”.
